Drawing on BindingDB's records for doi:10.1016/j.bmcl.2006.12.076 (Glaxosmithkline, 2007), this text covers IC50 for one compound.

The nature of experiment [1]: Antagonist activity at human recombinant CCR8 expressed in Th2 cells assessed as I309 mediated migration by chemotaxis assay.
The nature of experiment [2]: Antagonist activity at human recombinant CCR8 expressed in HUT78 cells assessed as I309-mediated migration by chemotaxis assay.

Molecules are shown by their SMILES.

On to `COc1ccc2nccc([C@@H]3CN(C4CCN(Cc5cc6ccccc6[nH]5)CC4)C(=O)O3)c2c1` [SB-649701], for which the IC50 in experiment [1] worked out at 100 nM; in experiment [2] it was 501 nM.

The IC50 is the concentration that gives 50% inhibition.
